According to article PMC6934184, “Selective DNA-PKcs inhibition extends the therapeutic index of localized radiotherapy and chemotherapy” (The Journal of Clinical Investigation, 2019):

Molecular target: T1, GRK1 (Homo sapiens, UniProt Q15835)
T1 construct: purchased Thermo Fisher Scientific (Life Technologies) SelectScreen
Test: SelectScreen LanthaScreen
Assay type: binding
Details: read-out: % displacement
Procedure, shortened: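 NU5455 was profiled across the SelectScreen Broad panel of kinase activity and binding assays. Z'LYTE reactions such as CSF1R ran at apparent Km ATP, while the Adapta CAMK1 assay used ATP listed as 10. Values are given as percent.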

T1 sequence (Q15835 whole entry): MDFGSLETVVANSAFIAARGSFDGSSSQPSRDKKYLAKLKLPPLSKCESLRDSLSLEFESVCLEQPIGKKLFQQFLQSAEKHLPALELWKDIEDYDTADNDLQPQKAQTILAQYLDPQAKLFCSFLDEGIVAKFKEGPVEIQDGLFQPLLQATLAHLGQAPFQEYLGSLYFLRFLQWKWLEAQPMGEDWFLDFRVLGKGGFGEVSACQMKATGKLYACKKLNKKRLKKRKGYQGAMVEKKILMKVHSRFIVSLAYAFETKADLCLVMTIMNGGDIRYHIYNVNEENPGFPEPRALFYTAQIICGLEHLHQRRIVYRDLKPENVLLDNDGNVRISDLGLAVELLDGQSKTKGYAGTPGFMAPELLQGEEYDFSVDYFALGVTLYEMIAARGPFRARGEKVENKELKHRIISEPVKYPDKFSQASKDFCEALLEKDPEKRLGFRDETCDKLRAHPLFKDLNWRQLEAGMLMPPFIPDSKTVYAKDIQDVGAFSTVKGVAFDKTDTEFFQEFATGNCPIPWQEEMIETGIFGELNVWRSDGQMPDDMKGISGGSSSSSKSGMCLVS

CN(C(=O)CN1CCOCC1)c1ccc2sc3c(-c4cccc5c(=O)cc(N6CC7CCC(C6)O7)oc45)cccc3c2c1 [NU5455]
inhibition at 1 µM: 1.3%
